{"source": "patent US6548540B2", "about": "“Method of treating cancer using dithiocarbamate derivatives” (Charlotte-Mecklenburg Hospital Authority, priority 1998, dated 2003)", "key": {"[1]": {"tested_on": "cyclin B1", "test": "Immunoblot for cyclin B1", "format": "cell-based, human", "conditions": "disulfiram plus copper; data not shown", "method": "Cells were lysed and proteins were isolated and quantitated by immunoassay as previously detailed using 2 μg/ml of primary rabbit polyclonal antibodies against human bcl-2, p53, p21^WAF1/CiP1, cyclin A and cyclin B1, and peroxidase-labeled donkey polyclonal anti-rabbit IgG. Cells were placed on ice, washed twice with cold DPBS, scraped into 0.5 ml boiling buffer (10% [vol/vol] glycerol and 2% [wt/vol] sodium dodecyl sulfate [SDS] in 83 mM Tris, pH 6.8) and sheared by four passages through a pipette. Aliquots were removed for protein determination, using the BCA protein assay (Pierce). After 10% β-mercaptoethanol and 0.05% bromophenol blue were added, lysates were boiled for 5 min and stored at −80° C. until immunoblotting was performed. Proteins in defrosted samples were separated by SDS-polyacrylamide gel electrophoresis on 12% polyacrylamide gels (15 μg protein/lane) and electrotransferred to 0.45 μm Hybond ECL nitrocellulose membranes (Amersham Life Sciences) using the wet transblot method in transfer buffer (0.025 M Tris, 0.192 M glycine, 2.6 mM SDS, and 20%[vol/vol] methanol; pH 8.8) at 100 volts for 1 hour. […] Immunoblots were rinsed again as above and detected via an enhanced chemiluminescence method (ECL Western blotting detection system, Amersham Life Science, Buckinghamshire, England). […]"}, "[2]": {"tested_on": "Breast carcinoma MDA-MB-453", "test": "MTT proliferation assay, breast carcinoma", "format": "cell-based", "conditions": "Homo sapiens, read-out: Mean Percent Inhibition of Growth; for inhibition at 0.625 µM: disulfiram 0.625 μM; for inhibition at 1.25 µM: disulfiram 1.25 μM; for inhibition at 2.5 µM: disulfiram 2.5 μM; for inhibition at 5 µM: disulfiram 5.0 μM", "method": "(§1) Human malignant cell lines were obtained from American Type Tissue Culture Collection (Rockville, Md.). Melanoma cells lines CRL 1585 and 1619 were cultured in RPMI 1640 (GIBCO-BRL, Life Technologies, Grand Island, N.Y.) with 10% FBS and passed with nonenzymatic Cell Dissociation Solution® (Sigma). The prostate adenocarcinoma cell line CRL 1435 (PC-3) was also cultured in RPMI 1640 with 10% FBS but passed with 0.05% trypsin and 0.53 mM EDTA. The squamous lung carcinoma NCI-H520 and the adenosquamous lung carcinoma NCI-H596 cell lines were grown in RPMI 1640 supplemented with 10% FBS, 10 mM HEPES and 1.0 mM sodium pyruvate and passed with trypsin/EDTA. The small cell lung carcinoma NCI-H82 was cultured as a suspension in RPMI 1640 with 10% FBS. All of the above were grown in a 37° C. humidified environment containing 5% CO2/air. The breast carcinoma cell line MDA-MB-453 was grown in a 37° C. humidified environment with free gas exchange with atmospheric air using Leibovitz's L-15 medium with 2 mM L-glutamine and 10% FBS and was passed with trypsin/EDTA.\nThe effect of disulfiram (0.15 to 5.0 μM), diethyldithiocarbamate (DDC, 1.0 μM) or PDTC (0.625 to 5.0 μM) on proliferation of malignant cell lines was studied in cultures stimulated with 10% FBS. Cell numbers were quantitated 24-72 hours later. In some experiments disulfiram or PDTC were added immediately after cells were plated. In other experiments, cells were plated and allowed to grow for 24-72 hours before fresh media with disulfiram or PDTC was added, and cell numbers were assayed 24-72 hours later. Synergy was studied between disulfiram and N,N′-bis(2-chloroethyl-N-nitrosourea (carmustine or BCNU, 1.0 to 1,000 μM) or cisplatin (0.1 to 100 μg/ml) added to medium. The effect of metals on disulfiram was studied with 0.2 to 10 μM copper (provided as CuSO4), zinc (as ZnCl2), silver (as silver lactate) or gold (as HAuCl4.3H2O) ions added to growth medium. No pH changes occurred with addition of metal salts to culture medium. To provide a biologically relevant source of copper, in some experiments medium was supplemented with human ceruloplasmin at doses replicating low and high normal adult serum concentrations (250 and 500 μg/ml).\nProliferation of cultured cells was quantitated using a previously reported calorimetric method based upon metabolic reduction of the soluble yellow tetrazolium dye 3-[4,5-dimethylthiazol]-2yl-2,5-diphenyl tetrazolium bromide (MTT) to its insoluble purple formazan by the action of mitochondrial succinyl dehydrogenase (See, e.g., S. J. Hirst, et al., “Quantifying proliferation of cultured human and rabbit airway smooth muscle in response to serum and platelet derived growth factor,” Am. J. Respir. Cell Mol. Biol. 7:574-581 (1992); R. Dashtaki, et al. R., supra; S. S. Brar, et al., “Requirement for reactive oxygen species in serum-induced and platelet-derived growth factor-induced growth of airway smooth muscle,” J. Biol. Chem. 274:20017-20026 (1999)). This assay empirically distinguishes between dead and living cells. For proliferation studies, cells were seeded into 24-well uncoated plastic plates (Costar) at 50,000 cells per well and cultured with respective media and mitogens. After 24-96 hours, medium was removed, cells were washed twice with 1 ml of sterile Dulbecco's modified phosphate buffered saline without Ca^2+ or Mg^2+ (DPBS), the medium was replaced with 1 ml/well fresh medium containing 100 μg/ml MTT, and plates were incubated an additional hour. MTT-containing medium was removed, 0.5 ml dimethylsulfoxide (DMSO) was added to each well, and the absorbance of the solubilized purple formazan dye was measured at 540 nm. A total of 4-6 wells were studied at each treatment condition. Preliminary studies were performed with 50-200 μg/ml MTT incubated for 15 minutes to 3 hours to determine the optimum concentration and incubation time at which the rate of conversion was linear and proportional to the number of cells present. […]"}, "[3]": {"tested_on": "Squamous lung carcinoma NCI-H520", "test": "MTT proliferation assay, squamous lung carcinoma", "format": "cell-based", "conditions": "Homo sapiens, treatment initially, after 48 hours, 10% FBS, read-out: Mean Percent Inhibition of Growth", "method": "as §1\nThe effect of disulfiram (0.15 to 5.0 μM), diethyldithiocarbamate (DDC, 1.0 μM) or PDTC (0.625 to 5.0 μM) on proliferation of malignant cell lines was studied in cultures stimulated with 10% FBS. Cell numbers were quantitated 24-72 hours later. In some experiments disulfiram or PDTC were added immediately after cells were plated. In other experiments, cells were plated and allowed to grow for 24-72 hours before fresh media with disulfiram or PDTC was added, and cell numbers were assayed 24-72 hours later. […]\nProliferation of cultured cells was quantitated using a previously reported calorimetric method based upon metabolic reduction of the soluble yellow tetrazolium dye 3-[4,5-dimethylthiazol]-2yl-2,5-diphenyl tetrazolium bromide (MTT) to its insoluble purple formazan by the action of mitochondrial succinyl dehydrogenase (See, e.g., S. J. Hirst, et al., “Quantifying proliferation of cultured human and rabbit airway smooth muscle in response to serum and platelet derived growth factor,” Am. J. Respir. Cell Mol. Biol. 7:574-581 (1992); R. Dashtaki, et al. R., supra; S. S. Brar, et al., “Requirement for reactive oxygen species in serum-induced and platelet-derived growth factor-induced growth of airway smooth muscle,” J. Biol. Chem. 274:20017-20026 (1999)). […] MTT-containing medium was removed, 0.5 ml dimethylsulfoxide (DMSO) was added to each well, and the absorbance of the solubilized purple formazan dye was measured at 540 nm. […]"}, "[4]": {"conditions": "section 'Treatment after 24 hours' (breast grown 48 hours), additional 48 hours"}, "[5]": {"conditions": "treatment initially, after 48 hours, 10% FBS"}}, "note": "Like-named read-outs stand apart in the source and are kept apart here."}
{"smiles": "CCN(CC)C(=S)SSC(=S)N(CC)CC", "note": "[Disulfiram, tetraethylthiuram disulfide]", "values": [{"measurement": "levels of B1", "setting": "[1]", "result": "remained unchanged"}, {"measurement": "inhibition at 0.625 µM", "setting": "[2]; [4]", "result": "26 ± 5", "unit": "%"}, {"measurement": "inhibition at 0.625 µM", "setting": "[2]; [5]", "result": "69 ± 4", "unit": "%"}, {"measurement": "inhibition at 1.25 µM", "setting": "[2]; [4]", "result": "26 ± 2", "unit": "%"}, {"measurement": "inhibition at 1.25 µM", "setting": "[2]; [5]", "result": "94 ± 2", "unit": "%"}, {"measurement": "inhibition at 2.5 µM", "setting": "[2]; [4]", "result": "39 ± 2", "unit": "%"}, {"measurement": "inhibition at 2.5 µM", "setting": "[2]; [5]", "result": 100, "unit": "%"}, {"measurement": "inhibition at 5 µM", "setting": "[2]; [4]", "result": "46 ± 4", "unit": "%"}, {"measurement": "inhibition at 5 µM", "setting": "[2]; [5]", "result": 100, "unit": "%"}, {"measurement": "inhibition at 0.625 µM", "setting": "[3]; disulfiram 0.625 μM", "result": "76 ± 3", "unit": "%"}, {"measurement": "inhibition at 1.25 µM", "setting": "[3]; disulfiram 1.25 μM", "result": "82 ± 4", "unit": "%"}, {"measurement": "inhibition at 2.5 µM", "setting": "[3]; disulfiram 2.5 μM", "result": "77 ± 4", "unit": "%"}, {"measurement": "inhibition at 5 µM", "setting": "[3]; disulfiram 5.0 μM", "result": "78 ± 3", "unit": "%"}]}
